Data from patent US20260216204A1, “METHODS FOR TREATING LOWER RISK MYELODYSPLASTIC SYNDROME” (Constellation Pharmaceuticals, Inc., priority 2022, published 2026).

Legend:
[1] = tested on: transfusion dependent MF patients; conditions: Arm 2, pelabresib in addition to ruxolitinib; cited from earlier work
[2] = tested on: erythrocyte progenitors in bone marrow biopsy; conditions: semi-quantitative CD71 IHC, baseline vs Week 24, 22 out of 37; cited from earlier work
[3] = tested on: IL-10 release of primary MDS patient PBMCs stimulated with LPS; assay: Cytokine release of LPS-stimulated primary MDS patient PBMCs (eight-point titration): IL-10; assay type: cell-based, human; conditions: 5 μM to 8.2 nM, normalized to DMSO only, n=7-10 donors, FIG. 3
Method: (§1) Primary MDS patient samples (cryopreserved peripheral blood mononuclear cells (PBMCs)) were purchased from Discovery Life Sciences. For sample selection, we chose patients with low blast count (ideally below 5%), excluded patients with multilineage dysplasia and (if available) checked blood parameters such as white blood cell count and disease staging notes in order to select patients that show LR-MDS characteristics. Freshly thawed PBMCs were seeded at 50 000 cells/well in a 96-well flat bottom plate. 0.001 μg/mL lipopolysaccharide (LPS-B5, Invivogen) were added to induce IL-6 production. […] After centrifugation, the supernatant of the cells was collected and IL-6 protein in the supernatant was quantified using Human IL-6 Kit (V-PLEX, Meso Scale Discovery). The assay plates were read on a Meso Sector S600. […] The half maximal inhibitory concentration (IC50) was calculated by logarithmic transformation of the compound concentrations and applying “log(inhibitor) vs. response—variable slope (four parameters)”—function. […] After centrifugation, the supernatant of the cells was collected and IFNγ, TNFα, IL-6, IL-8 or IL-10 protein in the supernatant was quantified using Proinflammatory Panel 1 Human Kit (IFNγ, TNFα, IL-6 and IL-10) or Human IL-8 Kit (both V-PLEX, Meso Scale Discovery). The assay plates were read on a Meso Sector S600. […]

[4] = tested on: TNFα release of primary MDS patient PBMCs stimulated with LPS; assay: Cytokine release of LPS-stimulated primary MDS patient PBMCs (eight-point titration): TNFα; assay type: cell-based, human; conditions: 5 μM to 8.2 nM, normalized to DMSO only, n=7-10 donors, FIG. 3
Method: as §1

[5] = tested on: IL-6 release of primary MDS patient PBMCs stimulated with LPS; assay: IL-6 release of LPS-stimulated primary MDS patient PBMCs, electrochemiluminescence immunoassay (nine-point titration); assay type: cell-based, human; conditions: n=2 donors, FIG. 1
Method: This study was performed to evaluate the anti-inflammatory activity of pelabresib on MDS patient cells from different donors. The NF-kB pathway is central in regulating cytokines such as TNF-α, IL-6, and IL-8 which are elevated in MDS patients and play role in the pathogenesis of myelodysplastic syndromes (Ref: e.g. doi: 10.1097/MD.0000000000015844). Primary MDS patient samples (cryopreserved peripheral blood mononuclear cells (PBMCs)) were purchased from Discovery Life Sciences. For sample selection, we chose patients with low blast count (ideally below 5%), excluded patients with multilineage dysplasia and (if available) checked blood parameters such as white blood cell count and disease staging notes in order to select patients that show LR-MDS characteristics. Freshly thawed PBMCs were seeded at 50 000 cells/well in a 96-well flat bottom plate. 0.001 μg/mL lipopolysaccharide (LPS-B5, Invivogen) were added to induce IL-6 production. […] After centrifugation, the supernatant of the cells was collected and IL-6 protein in the supernatant was quantified using Human IL-6 Kit (V-PLEX, Meso Scale Discovery). The assay plates were read on a Meso Sector S600. […] The half maximal inhibitory concentration (IC50) was calculated by logarithmic transformation of the compound concentrations and applying “log(inhibitor) vs. response—variable slope (four parameters)”—function.

[6] = tested on: IL-6 release of primary MDS patient PBMCs stimulated with LPS; assay: Cytokine release of LPS-stimulated primary MDS patient PBMCs (eight-point titration): IL-6; assay type: cell-based, human; conditions: 5 μM to 8.2 nM, normalized to DMSO only, n=7-10 donors, FIG. 3
Method: as §1

[7] = tested on: IFNγ release of primary MDS patient PBMCs stimulated with LPS; assay: Cytokine release of LPS-stimulated primary MDS patient PBMCs (eight-point titration): IFNγ; assay type: cell-based, human; conditions: 5 μM to 8.2 nM, normalized to DMSO only, n=7-10 donors, FIG. 3
Method: as §1

[8] = tested on: CD34+ stem cells derived from LR-MDS donors; assay: Erythropoiesis of hematopoietic stem cells (CD34+) isolated from MDS patient bone marrow, flow cytometry; assay type: cell-based, human; conditions: pelabresib monohydrate 500 nM to 31.25 nM tested; FIG. 2 at 250 nM with erythroid expansion supplement, day 7, n=2 donors
From the text: Primary MDS patient samples (cryopreserved bone marrow mononuclear cells (BMMCs)) were purchased from Discovery Life Sciences. For sample selection, we chose patients with low blast count (ideally below 5%), excluded patients with multilineage dysplasia and (if available) checked blood parameters such as white blood cell count and disease staging notes in order to select patients that show LR-MDS characteristics. Hematopoietic stem cells (CD34+) were isolated with EasySep Human CD34+ selection Kit II (StemCell Technologies) using freshly thawed cells. Cells were seeded at 1000 cells/well (for erythropoiesis) or 2500 cells/well (for CC100 differentiation mix) in a 96-flat-well plate. Differentiation cocktails StemSpan™ Erythroid Expansion Supplement (for Erythropoieses) or StemSpan™ CC100 (differentiation mix) were added according to the manufacturer's instructions. A 5-point titration series of pelabresib monohydrate with concentrations ranging from 500 nM to 31.25 nM was tested in duplicate. “DMSO only” treated wells served as control and were also used to prepare flow cytometry controls (such as FMOs). […] On day 7 cells were analysed via flow cytometry. […] Among the viable cells the percentage of CD34+CD71+ (megakaryocyte-erythroid progenitors (MEP)) and percentage of CD34−CD71+ (pro-erythroblasts/erythroblasts (pro-EB/EB)) was determined and depicted in GraphPad Prism 8 per donor.

[9] = tested on: advanced MF patients; conditions: cited from earlier work
[10] = tested on: CD34+ cells isolated from blood samples of healthy donors and MF patients; conditions: cited from earlier work
[11] = tested on: inflammatory cytokine regulated by the NF-κB pathway; conditions: lymphoma and MF patients; cited from earlier work
[12] = tested on: IL-8 release of primary MDS patient PBMCs stimulated with LPS; assay: Cytokine release of LPS-stimulated primary MDS patient PBMCs (eight-point titration): IL-8; assay type: cell-based, human; conditions: 5 μM to 8.2 nM, normalized to DMSO only, n=7-10 donors, FIG. 3
Method: as §1

**Q.** For `Cc1noc2c1-c1ccccc1C(c1ccc(Cl)cc1)=N[C@H]2CC(N)=O` [pelabresib, 2-((4S)-6-(4-chlorophenyl)-1-methyl-4H-benzo[c]isoxazolo[4,5-e]azepin-4-yl)acetamide], which “median duration of RBC-TI” value [1] is on record?
**A.** Its value is 39 weeks.

**Q.** And the “transfusion dependent MF patients who achieved RBC-TI ≥12 weeks” value [1]?
**A.** Its value is 36%.

**Q.** And the “patients with an increase in erythrocyte progenitors” value [2]?
**A.** The value was 59%.

**Q.** And the “release of IL-10” value [3]?
**A.** Its value is “suppressed release”.

**Q.** What about the “release of TNFα” value [4] of the same compound?
**A.** The value was “suppressed release”.

**Q.** What about the “IL-6 release in donor PBMCs” value ([5]; 5 μM to 3.3 nM, dose dependent) of the same compound?
**A.** Its value is “suppressed IL-6 release”.

**Q.** What about the IC50 ([5]; Homo sapiens, PBMC, 0.001 μg/mL LPS, approx. 18 hours, normalized to DMSO only control) of the same compound?
**A.** Its IC50 is 248 nM.

**Q.** And the “release of IL-6” value [6]?
**A.** The value was “suppressed release”.

**Q.** And the “release of IFNγ” value [7]?
**A.** The value was “suppressed release”.

**Q.** And the “differentiation of CD34+ stem cells towards erythropoiesis” value [8]?
**A.** Its value is “enhanced the differentiation”.

**Q.** And the “median duration of RBC-TI” value ([9]; Arm 1, monotherapy)?
**A.** The value was 44 weeks.

**Q.** What about the “transfusion dependent relapsed/refractory MF patients who achieved RBC-TI ≥12 weeks” value ([9]; Arm 1, monotherapy) of the same compound?
**A.** The value was 21%.

**Q.** And the “patients who achieved ≥1.5 g/dL increase in Hgb levels without transfusion” value ([9]; monotherapy, 11 out of 19)?
**A.** Its value is 57.9%.

**Q.** What about the erythrocyte maturation ([10]; CD34+ cells from healthy donors and MF patients, cytokine cocktail) of the same compound?
**A.** The erythrocyte maturation was “promotes erythrocyte maturation”.

**Q.** And the “suppressive effects of ruxolitinib on erythroid differentiation” value ([10]; in the presence of ruxolitinib, dose-dependent)?
**A.** The value was “rescued the suppressive effects”.

**Q.** And the “levels of inflammatory cytokine regulated by the NF-κB pathway” value [11]?
**A.** Its value is “can decrease the levels”.

**Q.** And the “release of IL-8” value [12]?
**A.** Its value is “suppressed release”.
